In US11939314B2, “Quinolin-2-one derivatives” (MERCK PATENT GMBH, priority 2016, dated 2024):

How the values were obtained:
PDGFRalpha(V561D) = biological target: T1, PDGFRalpha(V561D) (Homo sapiens, UniProt P16234, V561D); assay: PDGFRalpha(V561D) assay; type: biochemical; settings: recombinant human PDGFRalpha aa 550-end, 200 μM ATP, 1.4E-06 means 1.4×10^−6, read-out: Inhibition (IC50) of PDGFRα (V561D)
T1 construct: recombinant human PDGFRalpha, amino acids 550end containing the V561 D mutation; 6His (N)
Procedure, shortened: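 Radiometric filter-binding assay: substrate phosphorylation by recombinant N-His-tagged human PDGFRα 550-end V561D was quenched with 3% phosphoric acid after 40 min at room temperature, then counted.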

c-Kit(V654A) = biological target: T2, c-Kit(V654A) (Homo sapiens, UniProt P10721, V654A); assay: c-Kit(V654A) assay; type: biochemical; settings: recombinant human c-Kit aa 544-end, 200 μM ATP, 1.4E-06 means 1.4×10^−6, read-out: Inhibition (IC50) of c-KIT (V654A)
T2 construct: amino acids 544-end containing the V654A mutation; GST (N)
Procedure, shortened: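 Radiometric filter-binding read-out: substrate 33P incorporation counted by scintillation after P30 filtermat washes in 75 mM phosphoric acid and methanol. Enzyme: N-GST recombinant human c-Kit aa 544-end carrying V654A.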

T2 sequence (P10721 544-976 V654A): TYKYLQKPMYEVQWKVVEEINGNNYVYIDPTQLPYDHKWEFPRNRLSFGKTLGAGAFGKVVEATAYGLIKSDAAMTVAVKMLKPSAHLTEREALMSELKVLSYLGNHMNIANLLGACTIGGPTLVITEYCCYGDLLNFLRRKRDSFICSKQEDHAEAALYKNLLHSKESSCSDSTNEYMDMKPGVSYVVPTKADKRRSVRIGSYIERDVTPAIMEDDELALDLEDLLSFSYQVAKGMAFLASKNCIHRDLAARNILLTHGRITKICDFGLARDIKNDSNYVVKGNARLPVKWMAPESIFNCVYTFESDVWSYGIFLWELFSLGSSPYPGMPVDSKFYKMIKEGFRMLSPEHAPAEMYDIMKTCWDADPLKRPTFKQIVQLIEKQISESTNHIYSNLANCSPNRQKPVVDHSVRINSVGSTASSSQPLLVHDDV
T1 sequence (P16234 550-1089 V561D): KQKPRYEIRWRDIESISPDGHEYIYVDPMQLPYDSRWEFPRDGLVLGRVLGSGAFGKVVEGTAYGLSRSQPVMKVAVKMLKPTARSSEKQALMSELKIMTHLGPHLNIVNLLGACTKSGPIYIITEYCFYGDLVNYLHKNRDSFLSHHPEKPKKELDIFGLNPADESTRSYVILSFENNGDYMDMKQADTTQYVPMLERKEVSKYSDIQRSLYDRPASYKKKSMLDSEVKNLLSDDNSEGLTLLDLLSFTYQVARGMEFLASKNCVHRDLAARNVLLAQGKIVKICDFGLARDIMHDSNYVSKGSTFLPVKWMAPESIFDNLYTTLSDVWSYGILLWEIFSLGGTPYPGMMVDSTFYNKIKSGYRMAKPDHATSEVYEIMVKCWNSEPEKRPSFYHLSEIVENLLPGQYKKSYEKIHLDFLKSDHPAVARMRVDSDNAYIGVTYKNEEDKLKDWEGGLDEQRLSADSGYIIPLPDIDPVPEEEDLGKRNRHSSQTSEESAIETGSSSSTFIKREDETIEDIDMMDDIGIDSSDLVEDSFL

| Structure (SMILES) | IC50 (PDGFRalpha(V561D)) | IC50 (c-Kit(V654A)) |
| --- | --- | --- |
| CN1CCC(C(=O)c2ccc(-n3cc(-c4cc5cc(F)ccc5[nH]c4=O)nn3)cc2)CC1 [A161, 6-fluoro-3-{1-[4-(1-methyl-piperidine-4-carbonyl)-phenyl]-1H-[1,2,3]triazol-4-yl}-1H-quinolin-2-one] | 15 nM | 35 nM |
| CN1CCC(CCOc2ccc(-n3cc(-c4cc5cc(F)ccc5[nH]c4=O)nn3)cc2)CC1 [A163, 6-fluoro-3-(1-{4-[2-(1-methyl-piperidin-4-yl)-ethoxy]-phenyl}-1H-[1,2,3]triazol-4-yl)-1H-quinolin-2-one] | 45 nM | 9.9 nM |
| CN1CCN(C(=O)COc2ccc(-n3cc(-c4cc5cc(F)ccc5[nH]c4=O)nn3)cc2)CC1 [A165, 6-fluoro-3-(1-{4-[2-(4-methyl-piperazin-1-yl)-2-oxo-ethoxy]-phenyl}-1H-[1,2,3]triazol-4-yl)-1H-quinolin-2-one] | 33 nM | 30 nM |
| CN(C)C1CCN(C(=O)c2ccc(-n3cc(-c4cc5cc(F)ccc5[nH]c4=O)nn3)cc2)CC1 [A172, 3-{1-[4-(4-dimethylamino-piperidine-1-carbonyl)-phenyl]-1H-[1,2,3]triazol-4-yl}-6-fluoro-1H-quinolin-2-one] | 25 nM | 6.3 nM |
| COCCN1CCN(C(=O)c2ccc(-n3cc(-c4cc5cc(F)cnc5[nH]c4=O)nn3)cc2)CC1 [A175, 6-Fluoro-3-(1-{4-[4-(2-methoxy-ethyl)-piperazine-1-carbonyl]-phenyl}-1H-[1,2,3]triazol-4-yl)-1H-[1,8]naphthyridin-2-one] | 6 nM | 92 nM |
| CN1CCN(CCOc2ccc(-n3cc(-c4cc5cc(F)ccc5[nH]c4=O)nn3)cc2)CC1 [A176, 6-fluoro-3-(1-{4-[2-(4-methyl-piperazin-1-yl)-ethoxy]-phenyl}-1H-[1,2,3]triazol-4-yl)-1H-quinolin-2-one] | 1.6 nM | 6.7 nM |
| N#Cc1ccc2cc(-c3cn(-c4ccc(C(=O)N5CCOCC5)cc4)nn3)c(=O)[nH]c2c1 [A177, 3-{1-[4-(morpholine-4-carbonyl)-phenyl]-1H-[1,2,3]triazol-4-yl}-2-oxo-1,2-dihydro-quinoline-7-carbonitrile] | 57 nM | 170 nM |
| CN1CCN(C(=O)Cn2ccc3cc(-n4cc(-c5cc6cc(F)ccc6[nH]c5=O)nn4)ccc32)CC1 [A178, 6-fluoro-3-(1-{1-[2-(4-methyl-piperazin-1-yl)-2-oxo-ethyl]-1H-indol-5-yl}-1H-[1,2,3]triazol-4-yl)-1H-quinolin-2-one] | 1.3 nM | 3.9 nM |
| CC(=O)O[C@@H]1CCN(C(=O)c2ccc(-n3cc(-c4cc5cc(F)ccc5[nH]c4=O)nn3)cc2)C1 [A179, acetic acid (R)-1-{4-[4-(6-fluoro-2-oxo-1,2-dihydro-quinolin-3-yl)-[1,2,3]triazol-1-yl]-benzoyl}-pyrrolidin-3-yl ester] | 1.6 nM | 14 nM |
| CC(=O)O[C@H]1CCN(C(=O)c2ccc(-n3cc(-c4cc5cc(F)ccc5[nH]c4=O)nn3)cc2)C1 [A180, acetic acid (S)-1-{4-[4-(6-fluoro-2-oxo-1,2-dihydro-quinolin-3-yl)-[1,2,3]triazol-1-yl]-benzoyl}-pyrrolidin-3-yl ester] | 0.5 nM | 9.5 nM |
| O=C(c1ccc(-n2cc(-c3cc4cc(F)ccc4[nH]c3=O)nn2)cc1)N1CC[C@@H](O)C1 [A181, 6-fluoro-3-{1-[4-((R)-3-hydroxy-pyrrolidine-1-carbonyl)-phenyl]-1H-[1,2,3]triazol-4-yl}-1H-quinolin-2-one] | 0.71 nM | 8.5 nM |
| O=C(c1ccc(-n2cc(-c3cc4cc(F)ccc4[nH]c3=O)nn2)cc1)N1CC[C@H](O)C1 [A182, 6-fluoro-3-{1-[4-((S)-3-hydroxy-pyrrolidine-1-carbonyl)-phenyl]-1H-[1,2,3]triazol-4-yl}-1H-quinolin-2-one] | 1.2 nM | 13 nM |
| O=C(c1ccc(-n2cc(-c3cc4cc(F)ccc4[nH]c3=O)nn2)cc1)N1CCC(O)CC1 [A183, 6-fluoro-3-{1-[4-(4-hydroxy-piperidine-1-carbonyl)-phenyl]-1H-[1,2,3]triazol-4-yl}-1H-quinolin-2-one] | 26 nM | 7.5 nM |
| O=C(c1ccc(-n2cc(-c3cc4cc(F)ccc4[nH]c3=O)nn2)cc1)N1CCCC(O)C1 (stereo not drawn) [A184, 6-fluoro-3-{1-[4-(3-hydroxy-piperidine-1-carbonyl)-phenyl]-1H-[1,2,3]triazol-4-yl}-1H-quinolin-2-one] | 11 nM | 18 nM |
| CCN(CC)CCNC(=O)c1ccc(-n2cc(-c3cc4cc(F)c(F)cc4[nH]c3=O)nn2)cc1 [A187, N-(2-diethylamino-ethyl)-4-[4-(6,7-difluoro-2-oxo-1,2-dihydro-quinolin-3-yl)-[1,2,3]triazol-1-yl]-benzamide] | 76 nM | 36 nM |
| CCN(CC)CCNC(=O)c1ccc(-n2cc(-c3cc4cc(F)c(Cl)cc4[nH]c3=O)nn2)cc1 [A188, 4-[4-(7-chloro-6-fluoro-2-oxo-1,2-dihydro-quinolin-3-yl)-[1,2,3]triazol-1-yl]-N-(2-diethylamino-ethyl)-benzamide] | 1600 nM | 26 nM |
| COC1CCN(C(=O)c2ccc(-n3cc(-c4cc5cc(F)ccc5[nH]c4=O)nn3)cc2)CC1 [A190, 6-fluoro-3-{1-[4-(4-methoxy-piperidine-1-carbonyl)-phenyl]-1H-[1,2,3]triazol-4-yl}-1H-quinolin-2-one] | 64 nM | 9.7 nM |

The next lines start with the values.

| IC50 (PDGFRalpha(V561D)) | IC50 (c-Kit(V654A)) | Structure (SMILES) |
| --- | --- | --- |
| 0.32 nM | 5.9 nM | CN1CCN(C(=O)c2ccc(-n3cc(-c4cc5cc(F)c(F)cc5[nH]c4=O)nn3)cc2)CC1 [A157, 6,7-difluoro-3-{1-[4-(4-methyl-piperazine-1-carbonyl)-phenyl]-1H-[1,2,3]triazol-4-yl}-1H-quinolin-2-one] |
| 97 nM | 82 nM | CN1CCN(CCCOc2ccc(-n3cc(-c4cc5cc(F)c(F)cc5[nH]c4=O)nn3)cc2)CC1 [A162, 6,7-difluoro-3-(1-{4-[3-(4-methyl-piperazin-1-yl)-propoxy]-phenyl}-1H-[1,2,3]triazol-4-yl)-1H-quinolin-2-one] |
| 11 nM | 8.4 nM | CN1CCC(C(=O)c2ccc(-n3cc(-c4cc5cc(F)c(F)cc5[nH]c4=O)nn3)cc2)CC1 [A164, 6,7-difluoro-3-{1-[4-(1-methyl-piperidine-4-carbonyl)-phenyl]-1H-[1,2,3]triazol-4-yl}-1H-quinolin-2-one] |
| 43 nM | 8 nM | CN1CCC(CCOc2ccc(-n3cc(-c4cc5cc(F)c(F)cc5[nH]c4=O)nn3)cc2)CC1 [A166, 6,7-difluoro-3-(1-{4-[2-(1-methyl-piperidin-4-yl)-ethoxy]-phenyl}-1H-[1,2,3]triazol-4-yl)-1H-quinolin-2-one] |
| 21 nM | 18 nM | CN1CCN(C(=O)COc2ccc(-n3cc(-c4cc5cc(F)c(F)cc5[nH]c4=O)nn3)cc2)CC1 [A167, 6,7-difluoro-3-(1-{4-[2-(4-methyl-piperazin-1-yl)-2-oxo-ethoxy]-phenyl}-1H-[1,2,3]triazol-4-yl)-1H-quinolin-2-one] |
| 100 nM | 37 nM | Cc1ccc2[nH]c(=O)c(-c3cn(-c4ccc(C(=O)N5CCN(C)CC5)cc4)nn3)cc2c1 [A168, 6-methyl-3-{1-[4-(4-methyl-piperazine-1-carbonyl)-phenyl]-1H-[1,2,3]triazol-4-yl}-1H-quinolin-2-one] |
| 430 nM | 14 nM | CN1CCN(C(=O)Cc2ccc(-n3cc(-c4cc5cc(F)c(F)cc5[nH]c4=O)nn3)cc2)CC1 [A169, 6,7-difluoro-3-(1-{4-[2-(4-methyl-piperazin-1-yl)-2-oxo-ethyl]-phenyl}-1H-[1,2,3]triazol-4-yl)-1H-quinolin-2-one] |
| 12000 nM | 1800 nM | CN1CCN(C(=O)c2ccc(-n3cc(-c4cc5ccc(C(F)(F)F)cc5[nH]c4=O)nn3)cc2)CC1 [A170, 3-{1-[4-(4-methyl-piperazine-1-carbonyl)-phenyl]-1H-[1,2,3]triazol-4-yl}-7-trifluoromethyl-1H-quinolin-2-one] |
| 190 nM | 17 nM | CN(C)C1CCN(C(=O)c2ccc(-n3cc(-c4cc5cc(F)c(F)cc5[nH]c4=O)nn3)cc2)CC1 [A171, 3-{1-[4-(4-dimethylamino-piperidine-1-carbonyl)-phenyl]-1H-[1,2,3]triazol-4-yl}-6,7-difluoro-1H-quinolin-2-one] |
| 430 nM | 110 nM | CCN(CC)CCN1CCN(C(=O)c2ccc(-n3cc(-c4cc5cc(F)c(F)cc5[nH]c4=O)nn3)cc2)CC1 [A189, 3-(1-{4-[4-(2-diethylamino-ethyl)-piperazine-1-carbonyl]-phenyl}-1H-[1,2,3]triazol-4-yl)-6,7-difluoro-1H-quinolin-2-one] |
| 240 nM | 15 nM | COC1CCN(C(=O)c2ccc(-n3cc(-c4cc5cc(F)c(F)cc5[nH]c4=O)nn3)cc2)CC1 [A191, 6,7-difluoro-3-{1-[4-(4-methoxy-piperidine-1-carbonyl)-phenyl]-1H-[1,2,3]triazol-4-yl}-1H-quinolin-2-one] |
| 200 nM | 230 nM | CO[C@@H]1CCCN(C(=O)c2ccc(-n3cc(-c4cc5cc(F)c(F)cc5[nH]c4=O)nn3)cc2)C1 [A192, 6,7-difluoro-3-{1-[4-((R)-3-methoxy-piperidine-1-carbonyl)-phenyl]-1H-[1,2,3]triazol-4-yl}-1H-quinolin-2-one] |
| 200 nM | 230 nM | CO[C@H]1CCCN(C(=O)c2ccc(-n3cc(-c4cc5cc(F)c(F)cc5[nH]c4=O)nn3)cc2)C1 [A193, 6,7-difluoro-3-{1-[4-((S)-3-methoxy-piperidine-1-carbonyl)-phenyl]-1H-[1,2,3]triazol-4-yl}-1H-quinolin-2-one] |
